target: unphosphorylated-BTK kinase domain (UP-BTK), GST-tagged human BTK (389-659aa) (Homo sapiens (Human), UniProt Q06187); assay: BTK kinase Lanthascreen binding assay; details: Lanthascreen tracer competition, 60 minutes incubation; pIC50 = negative log of the IC50 in molar
In short: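 Measures how well compounds compete with a fluorescence-labelled tracer for binding to BTK in its unphosphorylated state. IC50 values were fitted and expressed as pIC50 (negative logarithm of the molar IC50).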

Chain of unphosphorylated-BTK kinase domain (UP-BTK), GST-tagged human BTK (389-659aa) (Q06187 389-659): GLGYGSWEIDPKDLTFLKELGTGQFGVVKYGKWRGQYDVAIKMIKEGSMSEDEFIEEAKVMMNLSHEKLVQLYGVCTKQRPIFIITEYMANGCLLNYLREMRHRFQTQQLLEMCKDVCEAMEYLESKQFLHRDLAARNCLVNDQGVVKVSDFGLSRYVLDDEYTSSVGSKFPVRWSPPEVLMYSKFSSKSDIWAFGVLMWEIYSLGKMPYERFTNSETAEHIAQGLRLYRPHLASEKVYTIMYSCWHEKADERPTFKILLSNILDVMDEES

Compound | BTK_I_binding pIC50
C=CC(=O)N1CCC[C@@H](NC(=O)c2sc3nccc4c3c2NC(=O)N4c2cnc(OC(C)C)cc2C)C1 (single isomer, unassigned) [Example 804, (R)—N-(1-Acryloylpiperidin-3-yl)-5-(*R)-(6-isopropoxy-4-methylpyridin-3-yl)-4-oxo-4,5-dihydro-3H-1-thia-3,5,8-triazaacenaphthylene-2-carboxamide] | 6.1
C=CC(=O)N1CCC[C@@H](NC(=O)c2sc3nccc4c3c2NC(=O)N4c2ccc(OC3CCC3)nc2C)C1 (single isomer, unassigned) [Example 736, (R)—N-(1-Acryloylpiperidin-3-yl)-5-(*R)-(6-cyclobutoxy-2-methylpyridin-3-yl)-4-oxo-4,5-dihydro-3H-1-thia-3,5,8-triazaacenaphthylene-2-carboxamide] | <6
CCC(=O)N1CCC[C@@H](NC(=O)c2sc3nccc4c3c2NC(=O)N4c2ccc(Oc3ccccn3)cc2C)C1 [Example 799, (R)-5-(2-Methyl-4-(pyridin-2-yloxy)phenyl)-4-oxo-N-(1-propionylpiperidin-3-yl)-4,5-dihydro-3H-1-thia-3,5,8-triazaacenaphthylene-2-carboxamide] | 6.2
C=CC(=O)N1CCC[C@@H](NC(=O)c2sc3nccc4c3c2NC(=O)N4c2ccc(Oc3ccccc3F)cn2)C1 [Example 777, (R)—N-(1-Acryloylpiperidin-3-yl)-5-(5-(2-fluorophenoxy)pyridin-2-yl)-4-oxo-4,5-dihydro-3H-1-thia-3,5,8-triazaacenaphthylene-2-carboxamide] | 8.3
CC(C)(C)OC(=O)N1CCC[C@@H](NC(=O)c2sc3nccc4c3c2NC(=O)N4c2ccc(S(=O)(=O)C(C)(C)C)cc2)C1 [Example 651, (R)-tert-Butyl 3-(5-(4-(tert-butylsulfonyl)phenyl)-4-oxo-4,5-dihydro-3H-1-thia-3,5,8-triazaacenaphthylene-2-carboxamido)piperidine-1-carboxylate] | <5
O=C(N[C@@H]1CCCNC1)c1sc2nccc3c2c1NC(=O)N3c1cccc(-c2ccccn2)c1 [Example 622, (R)-4-Oxo-N-(piperidin-3-yl)-5-(3-(pyridin-2-yl)phenyl)-4,5-dihydro-3H-1-thia-3,5,8-triazaacenaphthylene-2-carboxamide] | <6
C=CC(=O)N1CCC[C@@H](NC(=O)c2sc3nccc4c3c2NC(=O)N4c2cccc(C3COC3)c2)C1 [Example 632, (R)—N-(1-Acryloylpiperidin-3-yl)-5-(3-(oxetan-3-yl)phenyl)-4-oxo-4,5-dihydro-3H-1-thia-3,5,8-triazaacenaphthylene-2-carboxamide] | 5.9
Cc1nc(Oc2ccccc2)cnc1N1C(=O)Nc2c(C(=O)N[C@@H]3CCCNC3)sc3nccc1c23 [Example 656, (R)-5-(3-Methyl-5-phenoxypyrazin-2-yl)-4-oxo-N-(piperidin-3-yl)-4,5-dihydro-3H-1-thia-3,5,8-triazaacenaphthylene-2-carboxamide] | 6.2

same assay, conditions: Lanthascreen tracer competition, 60 minutes incubation; pIC50 = negative log of the IC50 in molar; read-out: BTK_I_binding pIC50 (converted)

Compound | IC50
O=C(N[C@@H]1CCCNC1)c1sc2nccc3c2c1NC(=O)N3c1cccc(-c2ccncc2)c1 [Example 647, (R)-4-Oxo-N-(piperidin-3-yl)-5-(3-(pyridin-4-yl)phenyl)-4,5-dihydro-3H-1-thia-3,5,8-triazaacenaphthylene-2-carboxamide] | > 10000 nM
C=CC(=O)N[C@H]1COC[C@H]1NC(=O)c1sc2nccc3c2c1NC(=O)N3c1cnc(Oc2ccccc2)cc1C (single isomer, unassigned) [Example 745, N-((3*S,4*R)-4-Acrylamidotetrahydrofuran-3-yl)-5-(*S)-(4-methyl-6-phenoxypyridin-3-yl)-4-oxo-4,5-dihydro-3H-1-thia-3,5,8-triazaacenaphthylene-2-carboxamide] | 7.94 nM
O=C(N[C@@H]1CCCNC1)c1sc2nccc3c2c1NC(=O)N3c1ccc(OC2CCC2)cc1 [Example 626, (R)-5-(4-Cyclobutoxyphenyl)-4-oxo-N-(piperidin-3-yl)-4,5-dihydro-3H-1-thia-3,5,8-triazaacenaphthylene-2-carboxamide] | 1260 nM

same assay, conditions: pIC50 = negative log of the IC50 in molar; 60 minutes incubation, 50 nM Tracer 236

Compound | BTK_I_binding pIC50
CCc1ccccc1Oc1ccc(N2C(=O)Nc3c(C(=O)N[C@@H]4CCCN(C(=O)/C(C#N)=C/C5CC5)C4)sc4nccc2c34)c(C)c1 [Example 76, (R,E)-N-(1-(2-Cyano-3-cyclopropylacryloyl)piperidin-3-yl)-5-(4-(2-ethylphenoxy)-2-methylphenyl)-4-oxo-4,5-dihydro-3H-1-thia-3,5,8-triazaacenaphthylene-2-carboxamide] | 6.8
C=CC(=O)N1CC[C@@H](NC(=O)c2sc3nccc4c3c2NC(=O)N4c2ccc(Oc3ccccc3)cc2Cl)C1 [Example 12, (R)—N-(1-Acryloylpyrrolidin-3-yl)-5-(2-chloro-4-phenoxyphenyl)-4-oxo-4,5-dihydro-3H-1-thia-3,5,8-triazaacenaphthylene-2-carboxamide] | 7.7
Cc1cc(Oc2ccccc2)ccc1N1C(=O)Nc2c(C(=O)N[C@H]3CNCC(F)(F)C3)sc3nccc1c23 [Example 174, (R)—N-(5,5-Difluoropiperidin-3-yl)-5-(2-methyl-4-phenoxyphenyl)-4-oxo-4,5-dihydro-3H-1-thia-3,5,8-triazaacenaphthylene-2-carboxamide] | 6.6
Cc1c(N2C(=O)Nc3c(C(=O)N[C@@H]4CCCN(C(=O)CCS(C)(=O)=O)C4)sc4nccc2c34)ccc(Oc2ccccc2)c1F [Example 113, (R)-5-(3-Fluoro-2-methyl-4-phenoxyphenyl)-N-(1-(3-(methylsulfonyl)propanoyl)piperidin-3-yl)-4-oxo-4,5-dihydro-3H-1-thia-3,5,8-triazaacenaphthylene-2-carboxamide] | 7.3
Cc1cc(Oc2ccccc2)ccc1N1C(=O)Nc2c(C(=O)NC3(CO)CCOCC3)sc3nccc1c23 [Example 192, N-(4-(Hydroxymethyl)tetrahydro-2H-pyran-4-yl)-5-(2-methyl-4-phenoxyphenyl)-4-oxo-4,5-dihydro-3H-1-thia-3,5,8-triazaacenaphthylene-2-carboxamide] | 6.8
Cc1cc(OC2CCOCC2)ccc1N1C(=O)Nc2c(C(=O)N[C@@H]3CCCN(C(=O)/C(C#N)=C/C4CC4)C3)sc3nccc1c23 [Example 233, (R,E)-N-(1-(2-Cyano-3-cyclopropylacryloyl)piperidin-3-yl)-5-(2-methyl-4-((tetrahydro-2H-pyran-4-yl)oxy)phenyl)-4-oxo-4,5-dihydro-3H-1-thia-3,5,8-triazaacenaphthylene-2-carboxamide] | 7.2
Cc1cc(Oc2ccccc2)ccc1N1C(=O)Nc2c(C(=O)N[C@@H]3CCCN(C(=O)[C@@H]4CCOC4)C3)sc3nccc1c23 [Example 198, 5-(2-Methyl-4-phenoxyphenyl)-4-oxo-N—((R)-1-((R)-tetrahydrofuran-3-carbonyl)piperidin-3-yl)-4,5-dihydro-3H-1-thia-3,5,8-triazaacenaphthylene-2-carboxamide] | 7.0
Cc1cc(Oc2ccccc2)ccc1N1C(=O)Nc2c(C(=O)N[C@H]3CNC[C@H](F)C3)sc3nccc1c23 [Example 138, N-((3R,5R)-5-fluoropiperidin-3-yl)-5-(2-methyl-4-phenoxyphenyl)-4-oxo-4,5-dihydro-3H-1-thia-3,5,8-triazaacenaphthylene-2-carboxamide] | 7.0
COCC(=O)N1CCC[C@@H](NC(=O)c2sc3nccc4c3c2NC(=O)N4c2ccc(Oc3ccccc3)c(F)c2C)C1 [Example 115, (R)-5-(3-Fluoro-2-methyl-4-phenoxyphenyl)-N-(1-(2-methoxyacetyl)piperidin-3-yl)-4-oxo-4,5-dihydro-3H-1-thia-3,5,8-triazaacenaphthylene-2-carboxamide] | 7.4
C=CC(=O)N1C[C@H](O)C[C@@H](NC(=O)c2sc3nccc4c3c2NC(=O)N4c2ccc(Oc3ccccc3)cc2C)C1 (single isomer, unassigned) [Example 2, N-((3R,5S)-1-Acryloyl-5-hydroxypiperidin-3-yl)-5-(*S)-(2-methyl-4-phenoxyphenyl)-4-oxo-4,5-dihydro-3H-1-thia-3,5,8-triazaacenaphthylene-2-carboxamide] | 8.2

same assay, conditions: pIC50 = negative log of the IC50 in molar; 60 minutes incubation, 50 nM Tracer 236; read-out: BTK_I_binding pIC50 (converted)

Compound | IC50
C=CC(=O)N1C[C@@H](F)[C@@H](NC(=O)c2sc3nccc4c3c2NC(=O)N4c2ccc(Oc3ccccc3)cc2C)C1 (single isomer, unassigned) [Example 28, N-((3S,4R)-1-Acryloyl-4-fluoropyrrolidin-3-yl)-5-(*S)-(2-methyl-4-phenoxyphenyl)-4-oxo-4,5-dihydro-3H-1-thia-3,5,8-triazaacenaphthylene-2-carboxamide] | 12.6 nM

same assay, conditions: unphosphorylated-BTK kinase domain, 50 nM Tracer 236, 60 minutes; pIC50 = negative log of the IC50 in molar

Compound | BTK_I_binding pIC50
C=CC(=O)N1CC[C@H](C(=O)Nc2sc3nccc4c3c2NC(=O)N4c2ccc(Oc3ccccc3)cc2C)C1 [Example 544, (S)-1-Acryloyl-N-(5-(2-methyl-4-phenoxyphenyl)-4-oxo-4,5-dihydro-3H-1-thia-3,5,8-triazaacenaphthylen-2-yl)pyrrolidine-3-carboxamide] | 7.0
C=CC(=O)N1CCC[C@@H](NC(=O)c2sc3nccc4c3c2NC(=O)N4c2cccc(-c3cccc(C)c3)c2)C1 [Example 517, (R)—N-(1-Acryloylpiperidin-3-yl)-5-(3′-methyl-[1,1′-biphenyl]-3-yl)-4-oxo-4,5-dihydro-3H-1-thia-3,5,8-triazaacenaphthylene-2-carboxamide] | 7.5
CO[C@H]1C[C@@H](NC(=O)c2sc3nccc4c3c2NC(=O)N4c2ccc(Oc3ccccc3)cc2C)CN(C)C1 [Example 312, N-((3R,5S)-5-Methoxy-1-methylpiperidin-3-yl)-5-(2-methyl-4-phenoxyphenyl)-4-oxo-4,5-dihydro-3H-1-thia-3,5,8-triazaacenaphthylene-2-carboxamide] | 5.9

— US10800792B2, “Inhibitors of Bruton's tyrosine kinase and method of their use” (JANSSEN PHARMACEUTICA NV, priority 2015, dated 2020)
